ChEMBL document CHEMBL5233266, “β-Carboline as a Privileged Scaffold for Multitarget Strategies in Alzheimer's Disease Therapy” (J Med Chem, 2021)

Key:
[1] = target: Cyclin-dependent kinase 5 (Homo sapiens, UniProt Q00535); assay: Inhibition of CDK5 (unknown origin)
[2] = target: T1, Gamma-aminobutyric acid receptor subunit alpha-6 (Homo sapiens, UniProt Q16445); assay: Inhibition of human recombinant GABAA alpha6 receptor
[3] = target: T2, Gamma-aminobutyric acid receptor subunit alpha-1 (Homo sapiens, UniProt P14867); assay: Inhibition of human recombinant GABAA alpha1 receptor
T2 sequence (P14867 whole entry): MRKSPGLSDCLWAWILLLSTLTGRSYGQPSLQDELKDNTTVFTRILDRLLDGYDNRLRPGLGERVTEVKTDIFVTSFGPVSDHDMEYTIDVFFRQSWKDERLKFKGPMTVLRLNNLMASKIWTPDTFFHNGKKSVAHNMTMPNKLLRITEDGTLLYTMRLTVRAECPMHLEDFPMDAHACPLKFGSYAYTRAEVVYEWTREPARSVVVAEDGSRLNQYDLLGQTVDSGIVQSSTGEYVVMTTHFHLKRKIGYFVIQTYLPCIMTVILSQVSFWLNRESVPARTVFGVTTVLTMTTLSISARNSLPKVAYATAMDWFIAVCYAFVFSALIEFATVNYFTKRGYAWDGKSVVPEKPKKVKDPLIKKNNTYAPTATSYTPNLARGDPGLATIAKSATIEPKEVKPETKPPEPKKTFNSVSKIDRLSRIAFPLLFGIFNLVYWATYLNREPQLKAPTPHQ

[4] = target: T3, Gamma-aminobutyric acid receptor subunit alpha-3 (Homo sapiens, UniProt P34903); assay: Inhibition of human recombinant GABAA alpha3 receptor
T3 sequence (P34903 whole entry): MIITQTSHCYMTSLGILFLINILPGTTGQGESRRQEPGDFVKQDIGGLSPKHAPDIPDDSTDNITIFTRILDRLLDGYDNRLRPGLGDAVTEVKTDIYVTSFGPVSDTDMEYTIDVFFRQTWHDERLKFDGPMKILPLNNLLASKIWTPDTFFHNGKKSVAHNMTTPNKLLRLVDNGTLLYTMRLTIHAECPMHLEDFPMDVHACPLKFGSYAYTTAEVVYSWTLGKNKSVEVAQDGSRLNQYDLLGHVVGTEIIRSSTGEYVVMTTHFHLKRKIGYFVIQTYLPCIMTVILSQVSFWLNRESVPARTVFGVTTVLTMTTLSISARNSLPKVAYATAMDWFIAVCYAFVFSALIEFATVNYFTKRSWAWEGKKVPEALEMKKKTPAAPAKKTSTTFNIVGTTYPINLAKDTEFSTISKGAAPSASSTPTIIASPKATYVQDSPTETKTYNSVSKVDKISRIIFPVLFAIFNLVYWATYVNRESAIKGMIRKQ

[5] = target: T4, Gamma-aminobutyric acid receptor subunit alpha-2 (Homo sapiens, UniProt P47869); assay: Binding affinity to human recombinant GABAA alpha2 receptor assessed as inhibition constant incubated for 1 hrs by liquid scintillation counting analysis
T4 sequence (P47869 whole entry): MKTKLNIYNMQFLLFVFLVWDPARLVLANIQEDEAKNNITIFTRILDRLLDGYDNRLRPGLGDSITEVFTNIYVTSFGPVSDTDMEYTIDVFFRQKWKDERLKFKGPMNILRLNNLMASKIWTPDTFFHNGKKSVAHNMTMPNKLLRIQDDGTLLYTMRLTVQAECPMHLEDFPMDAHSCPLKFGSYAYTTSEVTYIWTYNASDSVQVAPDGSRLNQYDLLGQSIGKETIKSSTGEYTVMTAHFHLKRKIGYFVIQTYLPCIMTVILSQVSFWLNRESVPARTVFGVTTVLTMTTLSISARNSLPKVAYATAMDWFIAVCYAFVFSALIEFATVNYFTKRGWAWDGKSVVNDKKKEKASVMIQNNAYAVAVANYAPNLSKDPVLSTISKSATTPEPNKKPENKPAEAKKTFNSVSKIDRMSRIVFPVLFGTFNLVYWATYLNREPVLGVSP

[6] = target: T2, Gamma-aminobutyric acid receptor subunit alpha-1; assay: Binding affinity to human recombinant GABAA alpha1 receptor assessed as inhibition constant incubated for 1 hrs by liquid scintillation counting analysis
[7] = target: T1, Gamma-aminobutyric acid receptor subunit alpha-6; assay: Binding affinity to human recombinant GABAA alpha6 receptor assessed as inhibition constant incubated for 1 hrs by liquid scintillation counting analysis
[8] = target: T4, Gamma-aminobutyric acid receptor subunit alpha-2; assay: Inhibition of human recombinant GABAA alpha2 receptor
[9] = target: T5, Gamma-aminobutyric acid receptor subunit alpha-5 (Homo sapiens, UniProt P31644); assay: Binding affinity to human recombinant GABAA alpha5 receptor assessed as inhibition constant incubated for 1 hrs by liquid scintillation counting analysis
T5 sequence (P31644 whole entry): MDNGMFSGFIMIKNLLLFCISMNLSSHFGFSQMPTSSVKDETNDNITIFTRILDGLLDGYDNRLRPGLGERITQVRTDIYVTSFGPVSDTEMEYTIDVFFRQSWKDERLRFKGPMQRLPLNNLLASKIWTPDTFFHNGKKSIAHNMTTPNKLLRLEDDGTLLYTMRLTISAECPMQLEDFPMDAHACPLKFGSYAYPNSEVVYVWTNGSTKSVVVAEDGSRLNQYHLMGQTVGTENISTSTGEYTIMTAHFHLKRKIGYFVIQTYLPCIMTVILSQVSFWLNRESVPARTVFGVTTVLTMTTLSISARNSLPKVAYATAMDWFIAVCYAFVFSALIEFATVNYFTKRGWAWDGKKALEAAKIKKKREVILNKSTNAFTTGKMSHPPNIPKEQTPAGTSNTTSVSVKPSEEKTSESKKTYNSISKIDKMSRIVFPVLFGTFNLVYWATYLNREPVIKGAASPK

[10] = target: T6, Gamma-aminobutyric acid receptor subunit alpha-4 (Homo sapiens, UniProt P48169); assay: Binding affinity to human recombinant GABAA alpha4 receptor assessed as inhibition constant incubated for 1 hrs by liquid scintillation counting analysis
[11] = target: T6, Gamma-aminobutyric acid receptor subunit alpha-4; assay: Inhibition of human recombinant GABAA alpha4 receptor
[12] = target: T3, Gamma-aminobutyric acid receptor subunit alpha-3; assay: Binding affinity to human recombinant GABAA alpha3 receptor assessed as inhibition constant incubated for 1 hrs by liquid scintillation counting analysis
[13] = target: T5, Gamma-aminobutyric acid receptor subunit alpha-5; assay: Inhibition of human recombinant GABAA alpha5 receptor
[14] = target: 5-hydroxytryptamine receptor 1A (Homo sapiens, UniProt P08908); assay: Displacement of […] from human 5-HT1A expressed in human HEK cells assessed as inhibition constant by FLIPR assay; assay type: cell-based
[15] = target: T7, 5-hydroxytryptamine receptor 2C (Homo sapiens, UniProt P28335); assay: Displacement of [3H]-LSD from human 5-HT2C expressed in human HEK cells assessed as inhibition constant by FLIPR assay; assay type: cell-based
T7 sequence (P28335 whole entry): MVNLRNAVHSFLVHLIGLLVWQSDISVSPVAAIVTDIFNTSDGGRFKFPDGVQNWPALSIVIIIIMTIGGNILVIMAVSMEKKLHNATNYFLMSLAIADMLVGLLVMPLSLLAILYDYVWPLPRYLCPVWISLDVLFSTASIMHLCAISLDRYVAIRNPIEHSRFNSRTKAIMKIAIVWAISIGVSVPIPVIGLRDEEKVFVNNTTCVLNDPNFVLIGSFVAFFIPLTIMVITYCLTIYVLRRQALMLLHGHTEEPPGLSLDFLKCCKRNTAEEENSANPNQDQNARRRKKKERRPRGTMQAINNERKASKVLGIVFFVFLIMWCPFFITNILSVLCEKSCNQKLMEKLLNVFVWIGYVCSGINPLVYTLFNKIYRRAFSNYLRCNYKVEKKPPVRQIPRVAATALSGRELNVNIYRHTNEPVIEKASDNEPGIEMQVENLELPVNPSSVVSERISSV

[16] = target: T8, 5-hydroxytryptamine receptor 3A (Homo sapiens, UniProt P46098); assay: Binding affinity to 5-HT3R (unknown origin) assessed as inhibition constant
T8 sequence (P46098 whole entry): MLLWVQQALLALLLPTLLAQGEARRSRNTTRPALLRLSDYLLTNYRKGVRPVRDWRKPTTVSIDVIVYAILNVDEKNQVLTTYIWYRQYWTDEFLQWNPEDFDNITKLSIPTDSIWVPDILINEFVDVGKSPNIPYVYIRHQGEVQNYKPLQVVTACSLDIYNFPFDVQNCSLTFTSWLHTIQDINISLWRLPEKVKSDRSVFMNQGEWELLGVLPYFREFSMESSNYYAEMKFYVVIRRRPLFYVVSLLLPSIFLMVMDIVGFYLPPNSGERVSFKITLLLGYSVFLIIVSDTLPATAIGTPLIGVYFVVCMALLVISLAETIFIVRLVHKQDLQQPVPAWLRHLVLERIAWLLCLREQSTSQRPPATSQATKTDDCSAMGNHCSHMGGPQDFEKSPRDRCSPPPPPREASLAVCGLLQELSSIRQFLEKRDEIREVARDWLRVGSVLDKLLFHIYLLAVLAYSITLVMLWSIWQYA

[17] = target: 5-hydroxytryptamine receptor 5A (Homo sapiens, UniProt P47898); assay: Binding affinity to 5-HT5AR (unknown origin) assessed as inhibition constant
[18] = target: 5-hydroxytryptamine receptor 1D (Homo sapiens, UniProt P28221); assay: Binding affinity to 5-HT1DR (unknown origin) assessed as inhibition constant
[19] = target: 5-hydroxytryptamine receptor 6 (Homo sapiens, UniProt P50406); assay: Binding affinity to 5-HT6R (unknown origin) assessed as inhibition constant
[20] = target: 5-hydroxytryptamine receptor 7 (Homo sapiens, UniProt P34969); assay: Displacement of […] from human 5-HT7 expressed in human HEK cells assessed as inhibition constant by FLIPR assay; assay type: cell-based
[21] = target: Dual specificity tyrosine-phosphorylation-regulated kinase 1A (Homo sapiens, UniProt Q13627); assay: Inhibition of DYRK1A (unknown origin)
[22] = target: T9, Amine oxidase [flavin-containing] A (Homo sapiens, UniProt P21397); assay: Inhibition of MAO-A (unknown origin)
T9 sequence (P21397 whole entry): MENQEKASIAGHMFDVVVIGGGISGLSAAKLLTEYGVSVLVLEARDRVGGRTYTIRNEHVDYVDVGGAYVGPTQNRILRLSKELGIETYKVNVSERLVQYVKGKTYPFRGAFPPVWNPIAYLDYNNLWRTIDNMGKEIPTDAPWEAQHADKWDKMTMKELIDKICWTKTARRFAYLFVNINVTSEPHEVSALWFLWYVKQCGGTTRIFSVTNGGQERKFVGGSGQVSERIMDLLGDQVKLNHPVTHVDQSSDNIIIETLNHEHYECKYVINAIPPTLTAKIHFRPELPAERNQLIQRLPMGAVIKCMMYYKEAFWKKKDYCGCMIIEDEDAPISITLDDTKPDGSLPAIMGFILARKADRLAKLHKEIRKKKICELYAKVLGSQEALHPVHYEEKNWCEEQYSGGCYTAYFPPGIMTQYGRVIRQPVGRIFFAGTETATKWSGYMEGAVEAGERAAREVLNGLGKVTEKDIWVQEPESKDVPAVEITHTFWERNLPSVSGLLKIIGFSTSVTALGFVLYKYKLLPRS

[23] = target: 5-hydroxytryptamine receptor 2A (Homo sapiens, UniProt P28223); assay: Displacement of [3H]-LSD from human 5-HT2A expressed in human HEK cells assessed as inhibition constant by FLIPR assay; assay type: cell-based
[24] = target: 5-hydroxytryptamine receptor 1B (Homo sapiens, UniProt P28222); assay: Displacement of […] from human 5-HT1B expressed in human HEK cells assessed as inhibition constant by FLIPR assay; assay type: cell-based
[25] = target: Tyrosine-protein kinase Lck (Homo sapiens, UniProt P06239); assay: Inhibition of LCK (unknown origin)
[26] = target: Tyrosine-protein kinase Lyn (Homo sapiens, UniProt P07948); assay: Inhibition of LYN (unknown origin)
[27] = target: Dual specificity protein kinase CLK2 (Homo sapiens, UniProt P49760); assay: Inhibition of CLK2 (unknown origin)
[28] = target: Rho-associated protein kinase 2 (Homo sapiens, UniProt O75116); assay: Inhibition of ROCK2 (unknown origin)
[29] = target: Tyrosine-protein kinase Fyn (Homo sapiens, UniProt P06241); assay: Inhibition of FYN (unknown origin)
[30] = target: Protein kinase C (PKC); assay: Inhibition of PKC (unknown origin); assay type: protein assay, Homo sapiens
[31] = target: Dual specificity protein kinase CLK4 (Homo sapiens, UniProt Q9HAZ1); assay: Inhibition of CLK4 (unknown origin)
[32] = target: Rho-associated protein kinase 1 (Homo sapiens, UniProt Q13464); assay: Inhibition of ROCK1 (unknown origin)
[33] = target: Mitogen-activated protein kinase 1 (Homo sapiens, UniProt P28482); assay: Inhibition of ERK2 (unknown origin)
[34] = target: Cyclin-dependent kinase 2 (Homo sapiens, UniProt P24941); assay: Inhibition of CDK2 (unknown origin)
[35] = target: GABA-A receptor; anion channel; assay: Displacement of [3H]flunitrazepam from GABAA (unknown origin ) receptor by radioligand binding assay; assay type: protein-complex assay, Homo sapiens
[36] = target: Dual specificity protein kinase CLK3 (Homo sapiens, UniProt P49761); assay: Inhibition of CLK3 (unknown origin)
[37] = target: cAMP-dependent protein kinase (PKA) (Homo sapiens, UniProt P22694+P17612+P22612); assay: Inhibition of PKA (unknown origin); assay type: protein assay

T6 sequence (P48169 whole entry): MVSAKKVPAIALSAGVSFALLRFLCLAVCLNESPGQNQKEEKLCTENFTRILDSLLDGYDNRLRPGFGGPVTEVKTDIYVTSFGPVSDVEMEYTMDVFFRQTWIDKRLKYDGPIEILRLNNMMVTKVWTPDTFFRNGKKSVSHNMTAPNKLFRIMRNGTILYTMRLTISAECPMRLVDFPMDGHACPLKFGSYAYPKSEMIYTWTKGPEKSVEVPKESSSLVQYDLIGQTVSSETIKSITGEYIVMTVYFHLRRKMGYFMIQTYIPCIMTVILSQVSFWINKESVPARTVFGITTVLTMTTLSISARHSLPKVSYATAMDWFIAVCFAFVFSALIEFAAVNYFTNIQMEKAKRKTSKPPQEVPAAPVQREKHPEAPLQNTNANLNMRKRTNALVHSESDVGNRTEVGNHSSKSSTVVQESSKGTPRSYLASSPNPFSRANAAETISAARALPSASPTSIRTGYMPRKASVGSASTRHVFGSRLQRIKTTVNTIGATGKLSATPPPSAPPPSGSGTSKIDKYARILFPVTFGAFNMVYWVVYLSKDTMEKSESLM
T1 sequence (Q16445 whole entry): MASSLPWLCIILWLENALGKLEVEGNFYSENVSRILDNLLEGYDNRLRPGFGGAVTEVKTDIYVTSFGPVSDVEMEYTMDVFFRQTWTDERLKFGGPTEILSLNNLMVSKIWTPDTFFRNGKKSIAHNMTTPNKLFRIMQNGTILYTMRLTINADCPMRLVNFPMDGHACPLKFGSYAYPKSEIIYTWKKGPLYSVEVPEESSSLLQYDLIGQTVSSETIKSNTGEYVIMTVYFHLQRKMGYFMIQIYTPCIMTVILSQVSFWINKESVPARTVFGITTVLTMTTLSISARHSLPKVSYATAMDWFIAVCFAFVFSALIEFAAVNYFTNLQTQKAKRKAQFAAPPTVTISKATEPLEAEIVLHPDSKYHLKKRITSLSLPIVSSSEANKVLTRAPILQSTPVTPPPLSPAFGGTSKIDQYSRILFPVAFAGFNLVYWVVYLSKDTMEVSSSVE
Chain of Tyrosine-protein kinase Lck (P06239 whole entry): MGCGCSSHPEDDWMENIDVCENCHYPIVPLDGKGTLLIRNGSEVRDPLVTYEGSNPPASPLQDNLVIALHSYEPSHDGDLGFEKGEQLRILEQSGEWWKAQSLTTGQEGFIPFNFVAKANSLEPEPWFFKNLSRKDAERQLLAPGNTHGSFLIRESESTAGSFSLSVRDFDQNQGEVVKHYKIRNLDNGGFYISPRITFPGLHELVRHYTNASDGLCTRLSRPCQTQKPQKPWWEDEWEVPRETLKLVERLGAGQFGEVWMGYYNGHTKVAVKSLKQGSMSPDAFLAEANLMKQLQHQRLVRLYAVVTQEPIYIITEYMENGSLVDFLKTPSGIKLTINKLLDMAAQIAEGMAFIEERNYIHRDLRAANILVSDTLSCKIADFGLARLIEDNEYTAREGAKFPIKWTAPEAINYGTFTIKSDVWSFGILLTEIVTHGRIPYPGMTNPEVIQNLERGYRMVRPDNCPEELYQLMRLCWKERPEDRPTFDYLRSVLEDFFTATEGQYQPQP
Chain of 5-hydroxytryptamine receptor 7 (P34969 whole entry): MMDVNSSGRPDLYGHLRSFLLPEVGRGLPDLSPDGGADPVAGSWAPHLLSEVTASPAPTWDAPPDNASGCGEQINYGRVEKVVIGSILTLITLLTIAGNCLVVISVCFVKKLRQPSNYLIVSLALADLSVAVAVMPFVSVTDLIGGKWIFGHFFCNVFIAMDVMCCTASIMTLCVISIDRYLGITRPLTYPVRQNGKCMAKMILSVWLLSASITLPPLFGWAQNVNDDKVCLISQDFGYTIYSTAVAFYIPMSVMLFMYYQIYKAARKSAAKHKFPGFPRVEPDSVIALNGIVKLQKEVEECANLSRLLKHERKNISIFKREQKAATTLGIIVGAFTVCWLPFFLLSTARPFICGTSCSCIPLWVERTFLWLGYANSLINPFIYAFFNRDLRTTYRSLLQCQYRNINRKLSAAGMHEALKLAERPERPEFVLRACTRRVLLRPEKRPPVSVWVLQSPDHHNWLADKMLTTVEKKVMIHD
Chain of 5-hydroxytryptamine receptor 6 (P50406 whole entry): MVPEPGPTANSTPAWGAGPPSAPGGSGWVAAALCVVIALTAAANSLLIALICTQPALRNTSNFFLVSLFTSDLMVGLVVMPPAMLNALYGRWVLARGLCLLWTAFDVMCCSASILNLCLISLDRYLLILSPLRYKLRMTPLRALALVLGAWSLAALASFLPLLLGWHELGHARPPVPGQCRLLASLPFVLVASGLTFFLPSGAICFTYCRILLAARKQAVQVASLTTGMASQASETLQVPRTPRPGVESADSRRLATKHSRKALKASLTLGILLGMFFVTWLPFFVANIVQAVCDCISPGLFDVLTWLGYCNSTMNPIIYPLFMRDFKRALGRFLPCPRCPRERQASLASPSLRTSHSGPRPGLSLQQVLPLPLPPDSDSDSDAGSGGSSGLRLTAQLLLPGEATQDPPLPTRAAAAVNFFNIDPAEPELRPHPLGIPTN
Chain of 5-hydroxytryptamine receptor 1D (P28221 whole entry): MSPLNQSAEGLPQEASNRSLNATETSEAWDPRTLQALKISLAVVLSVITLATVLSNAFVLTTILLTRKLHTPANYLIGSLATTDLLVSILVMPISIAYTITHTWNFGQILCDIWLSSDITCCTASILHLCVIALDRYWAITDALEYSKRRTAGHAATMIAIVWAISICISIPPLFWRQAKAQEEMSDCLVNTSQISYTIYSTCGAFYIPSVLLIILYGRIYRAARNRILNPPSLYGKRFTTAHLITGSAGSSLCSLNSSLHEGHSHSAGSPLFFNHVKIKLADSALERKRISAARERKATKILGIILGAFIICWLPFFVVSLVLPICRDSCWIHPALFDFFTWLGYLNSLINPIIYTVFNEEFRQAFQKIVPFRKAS
Chain of Dual specificity protein kinase CLK4 (Q9HAZ1 whole entry): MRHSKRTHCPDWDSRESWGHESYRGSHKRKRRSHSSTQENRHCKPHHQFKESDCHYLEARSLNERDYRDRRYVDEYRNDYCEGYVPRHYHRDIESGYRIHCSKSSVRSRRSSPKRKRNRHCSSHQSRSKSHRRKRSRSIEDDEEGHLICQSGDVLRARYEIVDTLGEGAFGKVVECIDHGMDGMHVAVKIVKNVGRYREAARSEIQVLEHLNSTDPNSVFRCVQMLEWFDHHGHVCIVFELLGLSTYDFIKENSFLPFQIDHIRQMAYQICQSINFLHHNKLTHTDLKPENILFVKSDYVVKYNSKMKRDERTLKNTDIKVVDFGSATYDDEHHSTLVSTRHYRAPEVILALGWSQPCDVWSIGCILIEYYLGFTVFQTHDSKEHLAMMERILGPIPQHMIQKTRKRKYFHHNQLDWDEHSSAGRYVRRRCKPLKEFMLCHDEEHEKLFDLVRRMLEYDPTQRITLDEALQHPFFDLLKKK
Chain of Dual specificity protein kinase CLK2 (P49760 whole entry): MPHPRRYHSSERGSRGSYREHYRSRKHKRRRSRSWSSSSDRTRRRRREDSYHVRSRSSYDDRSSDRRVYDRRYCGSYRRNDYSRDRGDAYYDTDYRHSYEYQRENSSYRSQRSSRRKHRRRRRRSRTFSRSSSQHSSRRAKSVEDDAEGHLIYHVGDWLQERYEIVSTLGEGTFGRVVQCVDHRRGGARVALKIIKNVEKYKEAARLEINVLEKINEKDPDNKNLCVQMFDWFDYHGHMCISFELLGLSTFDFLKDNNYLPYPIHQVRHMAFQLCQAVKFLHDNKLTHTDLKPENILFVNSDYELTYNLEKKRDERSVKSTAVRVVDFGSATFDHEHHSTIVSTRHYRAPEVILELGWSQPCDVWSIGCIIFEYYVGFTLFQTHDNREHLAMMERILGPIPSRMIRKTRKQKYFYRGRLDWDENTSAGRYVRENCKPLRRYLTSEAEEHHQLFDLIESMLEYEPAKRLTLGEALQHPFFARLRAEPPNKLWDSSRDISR
Chain of 5-hydroxytryptamine receptor 2A (P28223 whole entry): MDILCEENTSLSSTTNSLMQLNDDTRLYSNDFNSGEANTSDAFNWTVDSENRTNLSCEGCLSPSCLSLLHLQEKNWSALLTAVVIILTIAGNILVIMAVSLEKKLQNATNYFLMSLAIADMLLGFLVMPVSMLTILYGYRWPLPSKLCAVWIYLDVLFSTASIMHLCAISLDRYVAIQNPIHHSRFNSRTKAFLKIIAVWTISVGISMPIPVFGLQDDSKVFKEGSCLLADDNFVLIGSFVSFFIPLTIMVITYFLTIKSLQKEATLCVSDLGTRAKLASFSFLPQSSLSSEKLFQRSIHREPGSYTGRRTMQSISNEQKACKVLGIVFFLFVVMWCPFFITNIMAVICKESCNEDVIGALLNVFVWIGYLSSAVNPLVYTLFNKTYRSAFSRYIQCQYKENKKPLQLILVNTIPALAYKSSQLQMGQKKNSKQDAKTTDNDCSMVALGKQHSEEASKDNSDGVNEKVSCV
Chain of Mitogen-activated protein kinase 1 (P28482 whole entry): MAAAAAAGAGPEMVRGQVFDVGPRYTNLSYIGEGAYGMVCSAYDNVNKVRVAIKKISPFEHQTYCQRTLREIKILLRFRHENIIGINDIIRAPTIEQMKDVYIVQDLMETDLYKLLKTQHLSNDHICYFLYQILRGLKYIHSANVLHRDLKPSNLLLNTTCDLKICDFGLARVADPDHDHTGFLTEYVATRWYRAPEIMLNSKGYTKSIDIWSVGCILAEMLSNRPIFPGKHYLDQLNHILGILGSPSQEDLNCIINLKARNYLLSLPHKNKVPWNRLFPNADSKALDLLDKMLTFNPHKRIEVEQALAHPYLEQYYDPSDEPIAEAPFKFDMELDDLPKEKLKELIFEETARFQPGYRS
Chain of Cyclin-dependent kinase 5 (Q00535 whole entry): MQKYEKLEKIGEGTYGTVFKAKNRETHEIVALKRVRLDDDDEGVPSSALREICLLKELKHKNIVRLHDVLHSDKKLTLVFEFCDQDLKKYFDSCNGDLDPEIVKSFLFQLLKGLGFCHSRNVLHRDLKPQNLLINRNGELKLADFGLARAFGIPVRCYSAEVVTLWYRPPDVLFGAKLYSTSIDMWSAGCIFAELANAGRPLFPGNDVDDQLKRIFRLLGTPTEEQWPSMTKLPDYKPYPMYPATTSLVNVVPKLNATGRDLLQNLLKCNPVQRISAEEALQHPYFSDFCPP

## Cc1[nH]cnc1-c1nccc2c1[nH]c1ccccc12
[1]
  IC50: 5 µM

## CC(OC(=O)c1cc2c(cn1)[nH]c1ccccc12)c1ccccc1 (configuration not stated)
[2]
  IC50: > 1 µM
[3]
  IC50: 0.034 µM
[4]
  IC50: > 1 µM
[5]
  Ki: 1 µM
[6]
  Ki: 0.034 µM
[7]
  Ki: 3 µM
[8]
  IC50: > 1 µM
[9]
  Ki: 1 µM
[10]
  Ki: 1 µM
[11]
  IC50: > 1 µM
[12]
  Ki: 1 µM
[13]
  IC50: > 1 µM

## COc1ccc2c3c([nH]c2c1)C(C)=NCC3 [HARMALINE]
[14]
  Ki: > 10 µM
[15]
  Ki: 9.4 µM
[16]
  Ki: > 10 µM
[17]
  Ki: > 10 µM
[18]
  Ki: > 10 µM
[19]
  Ki: 1.5 µM
[20]
  Ki: 5.5 µM
[21]
  IC50: 4.6 µM
[22]
  IC50: 0.0025 µM
[23]
  Ki: 5 µM
[24]
  Ki: > 10 µM

## COc1ccc2c(c1)[nH]c1c(C)nccc12 [HARMINE]
[25]
  IC50: > 250 µM
[26]
  IC50: > 250 µM
[27]
  IC50: 0.12 µM
[28]
  IC50: > 40 µM
[29]
  IC50: > 250 µM
[30]
  IC50: > 250 µM
[31]
  IC50: 0.024 µM
[32]
  IC50: 1.5 µM
[33]
  IC50: > 30 µM
[34]
  IC50: 33 µM
[35]
  IC50: > 100 µM
[36]
  IC50: 3 µM
[37]
  IC50: > 250 µM
